Where two headings read alike, the source gives them in different places.
What was measured:
GLS1 = GLS1 (Homo sapiens (Human), UniProt O94925); experiment: GLS Enzyme Potency Assay (Glutamate Oxidase/AmplexRed coupled assay); format: biochemical
Source text: (§1) The following assays were used to measure the effects of the compounds described herein: a) GLS Enzyme Potency Assay; b) GLS Cell Potency Assay; c) GLS Cell Proliferation Assay. During the description of the assays, generally: • i. The following abbreviations have been used: CO2=Carbon dioxide; DMEM=Dulbecco's Modified Eagle Medium; DMSO=Dimethyl sulphoxide; EDTA=Ethylenediaminetetraacetic acid; EGTA=Ethylene glycol tetraacetic acid; FCS=Foetal calf serum; h=Hour(s); NBS=Non-binding surface; SDS=Sodium dodecyl sulphate; TRIS=Tris(Hydroxymethyl)aminomethane. • ii. IC50 values were calculated using a smart fitting model in Genedata.
Assay a): GLS Enzyme Potency Assay
A Glutamate Oxidase/AmplexRed coupled assay was used to measure the ability of compounds to bind to and inhibit the activity of GLS1 in vitro. […] GLS1 was diluted to 2× working concentration and incubated at room temperature to allow the tetrameric/dimeric forms to reach steady state. Assay measurements were performed in buffer comprising 50 mM TRIS pH 7.8, 100 mM NaPO4, pH 7.8, 0.001% v/v Tween20. Purified recombinant GLS1 protein was diluted in assay buffer to 12 nM and pre-incubated at room temperature for 30 minutes. […] DMSO concentration was maintained at 2% by back filling with DMSO solution. 3 μL of diluted GLS1 protein (12 nM) was then dispensed into each well using a BioRaptr automated dispenser (Beckman-Coulter) and incubated for 15 minutes at room temperature. 3 μL of 100 mM glutamine diluted in assay buffer was then added and the reaction incubated at room temperature for 60 minutes. […] An artefact version of the assay where the 6His tagged GLS protein and glutamine were replaced with assay buffer was also used to rule out non specific effects on the assay components.

cellular GLS activity = cellular GLS activity (Homo sapiens (Human), UniProt O94925); experiment: GLS Cell Potency Assay (PC3 coupled assay measuring cellular glutamate depletion); format: cell-based; details: PC3 cells, 6 h incubation, glutamate depletion; read-out: Assay b) GLS cell MOA Mean IC50
Source text: as §1
Assay b): GLS Cell Potency Assay
Compounds were assessed for their potential to inhibit cellular GLS activity by use of a PC3 coupled assay measuring cellular glutamate depletion. […] DMSO concentration was maintained at 0.3% by back filling with DMSO solution. PC3 cells were grown in phenol free DMEM, 10% dialyzed FCS, 2 mM glutamine and following dispersal by trypsinisation were plated at 5.6×10^3 cells per well in 40 μl of growth medium directly into the 384 well assay plates containing dispensed compound. After incubation for 6 h at 37° C., 5% CO2 growth media was aspirated and cells lysed in 15 μl of buffer containing 10 mM TRIS pH7.4, 100 mM NaCl, 1 mM EDTA, 1 mM EGTA, 1 mM NaF, 20 mM Na4P2O7, 2 mM Na3VO4, 1% Triton X-100, 10% glycerol, 0.1% SDS and 0.5% deoxycholate.

NCI-H1703 cells = experiment: GLS Cell Proliferation Assay (NCI-H1703 cell proliferation); format: cell-based
Source text: as §1
Assay c): GLS Cell Proliferation Assay
The ability of compounds to inhibit cell growth was measured using a 384 well plate NCI-H1703 cell proliferation assay. NCI-H1703 cells were grown in phenol red free RPMI1640, 10% FCS and 2 mM glutamine and seeded at a density of 750 cells per well in 40 μl of growth medium into clear-bottom 384 well assay plates (Corning product code 3712) and incubated for 24 h at 37° C., 5% CO2. Test compounds were prepared by dilution in 100% DMSO to give the correct dose range for 12 point concentration response and an appropriate volume (5-120 nl) dispensed directly into the assay plates containing plated cells. DMSO concentration was maintained at 0.3% by back filling with DMSO solution. Plates were incubated for 5 days at 37° C., 5% CO2, Sytox Green and Saponin added to final concentration of 2 μM and 0.25% respectively and incubated for 6 h prior to analysis. Plates were read on an Acumen eX3 (TTP Labtech) using 488 nm excitation and FITC filter set (500-530 nm) for emission. IC50 values were calculated by curve fitting to max inhibition of day zero growth using GeneData software analysis.

[1] = 6His tagged GLS protein (amino acids 63-669), glutamine substrate; read-out: Assay a) enz IC50
[2] = Homo sapiens, NCI-H1703, 120 h, NCI-H1703 cells, 5 days; read-out: Assay c) Prolif Mean IC50
[3] = NCI-H1703 cells, 5 days; read-out: Assay c) Prolif Mean IC50

Chain of GLS1 (O94925 63-669): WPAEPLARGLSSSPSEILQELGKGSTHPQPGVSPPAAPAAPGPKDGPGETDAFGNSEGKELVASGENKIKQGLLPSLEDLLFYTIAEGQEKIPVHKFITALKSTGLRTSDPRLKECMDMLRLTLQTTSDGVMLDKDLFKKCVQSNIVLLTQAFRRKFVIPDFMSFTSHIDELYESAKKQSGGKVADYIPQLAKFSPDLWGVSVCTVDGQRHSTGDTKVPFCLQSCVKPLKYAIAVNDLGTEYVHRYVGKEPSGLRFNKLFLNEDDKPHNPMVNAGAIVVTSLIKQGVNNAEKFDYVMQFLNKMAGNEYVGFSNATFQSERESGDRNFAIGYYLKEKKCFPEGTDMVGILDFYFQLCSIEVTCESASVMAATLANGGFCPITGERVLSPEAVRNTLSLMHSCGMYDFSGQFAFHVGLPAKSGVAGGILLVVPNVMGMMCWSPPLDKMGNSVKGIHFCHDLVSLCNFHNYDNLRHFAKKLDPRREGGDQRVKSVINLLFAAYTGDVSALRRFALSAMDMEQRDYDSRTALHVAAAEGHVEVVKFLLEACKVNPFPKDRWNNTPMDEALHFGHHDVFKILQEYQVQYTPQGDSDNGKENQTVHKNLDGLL
Chain of cellular GLS activity (O94925 73-669): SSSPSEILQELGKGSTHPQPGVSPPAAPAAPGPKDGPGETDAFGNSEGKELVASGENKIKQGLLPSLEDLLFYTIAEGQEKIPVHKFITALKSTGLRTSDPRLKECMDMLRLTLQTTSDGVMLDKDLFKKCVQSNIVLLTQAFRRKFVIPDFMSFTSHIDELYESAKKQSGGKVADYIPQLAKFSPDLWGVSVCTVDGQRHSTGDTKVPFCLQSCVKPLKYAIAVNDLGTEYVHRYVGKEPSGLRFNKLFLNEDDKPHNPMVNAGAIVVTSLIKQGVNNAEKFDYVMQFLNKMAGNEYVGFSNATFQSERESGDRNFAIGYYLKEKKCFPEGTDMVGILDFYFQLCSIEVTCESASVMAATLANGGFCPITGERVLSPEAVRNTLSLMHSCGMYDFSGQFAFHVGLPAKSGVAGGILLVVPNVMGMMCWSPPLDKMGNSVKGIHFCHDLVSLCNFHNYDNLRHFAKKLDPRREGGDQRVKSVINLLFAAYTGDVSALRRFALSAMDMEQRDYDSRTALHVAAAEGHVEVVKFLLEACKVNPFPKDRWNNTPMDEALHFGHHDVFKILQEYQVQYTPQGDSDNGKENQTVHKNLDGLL

| Compound | IC50 (GLS1; [1]) | IC50 (cellular GLS activity) | IC50 (NCI-H1703 cells; [2]) | IC50 (NCI-H1703 cells; [3]) | IC50 (GLS1; read-out: Assay a) enz IC50) |
| --- | --- | --- | --- | --- | --- |
| CO[C@H](C(=O)Nc1nnc(N[C@@H]2CCN(c3ccc(F)nn3)C2)s1)c1ccccc1 [Example 2, (2S)-N-[5-[[(3R)-1-(6-Fluoropyridazin-3-yl)pyrrolidin-3-yl]amino]-1,3,4-thiadiazol-2-yl]-2-methoxy-2-phenyl-acetamide] | 30.3 nM | 0.965 nM | 16.7 nM | – | – |
| CCOC(C(=O)Nc1nnc(N[C@@H]2CCN(c3ccc(C)nn3)C2)s1)c1ccc(F)cc1 (single isomer, unassigned) [Example 28] | 96 nM | 3.57 nM | – | 73.2 nM | – |
| COc1ccc([C@H](OC)C(=O)Nc2nnc(N[C@@H]3CCN(c4cc(C)cnn4)C3)s2)cc1 (single isomer, unassigned) [Example 33(a)] | 148 nM | 19.2 nM | – | 18.9 nM | – |
| CO[C@H](C(=O)Nc1nnc(N[C@@H]2CCN(c3ccc(C)nn3)C2)s1)c1cccc(OC(F)(F)F)c1 (single isomer, unassigned) [7(b)] | – | 12.7 nM | – | 25.6 nM | 334 nM |
| CO[C@H](C(=O)Nc1nnc(N[C@@H]2CCN(c3cc(C)cnn3)C2)s1)c1ccc(F)cc1 (single isomer, unassigned) [10(b)] | – | – | – | 204 nM | – |
| COc1cc(C(OC)C(=O)Nc2nnc(N[C@@H]3CCN(c4ccc(F)nn4)C3)s2)ccc1F (single isomer, unassigned) [Example 23] | 265 nM | 197 nM | – | 106 nM | – |
| COc1cccc([C@H](OC)C(=O)Nc2nnc(N[C@@H]3CCN(c4ccc(C)nn4)C3)s2)c1 (single isomer, unassigned) [Example 1(b)] | – | 137 nM | – | 454 nM | 406 nM |
| COc1ccc([C@H](OC)C(=O)Nc2nnc(N[C@@H]3CCN(c4cc(Cl)cnn4)C3)s2)cc1 (single isomer, unassigned) [Example 11(a)] | 15.9 nM | – | – | 54.4 nM | – |
| CO[C@H](C(=O)Nc1nnc(N[C@@H]2CCN(c3ccc(C)nn3)C2)s1)c1cccc(OC(F)(F)F)c1 (single isomer, unassigned) [Example 7(a)] | 95.2 nM | 0.556 nM | – | 3.08 nM | – |
| CO[C@H](C(=O)Nc1nnc(N[C@@H]2CCN(c3cc(Cl)cnn3)C2)s1)c1ccccc1 [Example 12, (2S)-N-[5-[[(3R)-1-(5-Chloropyridazin-3-yl)pyrrolidin-3-yl]amino]-1,3,4-thiadiazol-2-yl]-2-methoxy-2-phenyl-acetamide] | 35.3 nM | 0.451 nM | 3.07 nM | – | – |
| COc1ccc([C@H](OC)C(=O)Nc2nnc(N[C@@H]3CCN(c4cc(C)cnn4)C3)s2)cc1 (single isomer, unassigned) [33(b)] | 79.9 nM | 2.35 nM | – | 37.9 nM | – |
| COc1ccc([C@H](OC)C(=O)Nc2nnc(N[C@@H]3CCN(c4cc(Cl)cnn4)C3)s2)cc1 (single isomer, unassigned) [11(b)] | – | 10.5 nM | – | 129 nM | 84.8 nM |
| CCOC(C(=O)Nc1nnc(N[C@@H]2CCN(c3ccc(C)nn3)C2)s1)c1ccc(OC)cc1 (single isomer, unassigned) [Example 15] | 277 nM | 34.8 nM | – | 567 nM | – |
| CO[C@H](C(=O)Nc1nnc(N[C@@H]2CCN(c3ccc(C)nn3)C2)s1)c1cccc(OC(F)F)c1 (single isomer, unassigned) [8(a)] | 99.4 nM | 1.3 nM | – | 5.48 nM | – |
| CO[C@H](C(=O)Nc1nnc(N[C@@H]2CCN(c3cc(C)cnn3)C2)s1)c1ccccc1 [Example 13, (2S)-2-Methoxy-N-[5-[[(3R)-1-(5-methylpyridazin-3-yl)pyrrolidin-3-yl]amino]-1,3,4-thiadiazol-2-yl]-2-phenyl-acetamide] | 59.2 nM | 0.658 nM | 8.48 nM | – | – |
| COC(C(=O)Nc1nnc(N[C@@H]2CCN(c3ccc(F)nn3)C2)s1)c1ccc(F)cc1 (single isomer, unassigned) [Example 19] | 55.7 nM | 4.7 nM | – | 71.9 nM | – |
| CCO[C@H](C(=O)Nc1nnc(N[C@@H]2CCN(c3ccc(C)nn3)C2)s1)c1cccc(OC)c1 (single isomer, unassigned) [Example 4(a)] | 79.2 nM | 0.457 nM | – | 6.64 nM | – |
| CCOC(C(=O)Nc1nnc(N[C@@H]2CCN(c3ccc(F)nn3)C2)s1)c1ccc(F)cc1 (single isomer, unassigned) [Example 25] | 1090 nM | 63.2 nM | – | 686 nM | – |
| CCOC(C(=O)Nc1nnc(N[C@@H]2CCN(c3ccc(F)nn3)C2)s1)c1ccc(F)cc1 (single isomer, unassigned) [Example 26] | 94.8 nM | 2.12 nM | – | 21.9 nM | – |
| COc1cccc([C@H](OC)C(=O)Nc2nnc(N[C@@H]3CCN(c4ccc(C)nn4)C3)s2)c1 (single isomer, unassigned) [Example 1(a)] | 55.4 nM | 0.566 nM | – | 4.59 nM | – |
| COc1cc([C@H](OC)C(=O)Nc2nnc(N[C@@H]3CCN(c4ccc(C)nn4)C3)s2)ccc1F (single isomer, unassigned) [Example 6(a)] | – | – | – | 20.9 nM | – |
| CO[C@H](C(=O)Nc1nnc(N[C@@H]2CCN(c3cc(C)cnn3)C2)s1)c1ccc(F)cc1 (single isomer, unassigned) [Example 10(a)] | – | – | – | 1210 nM | – |
| CCO[C@H](C(=O)Nc1nnc(N[C@@H]2CCN(c3ccc(C)nn3)C2)s1)c1cccc(OC)c1 (single isomer, unassigned) [4(b)] | – | 43.1 nM | – | 389 nM | 290 nM |
| COc1cccc([C@H](OC)C(=O)Nc2nnc(N[C@@H]3CCN(c4ccc(F)nn4)C3)s2)c1 [Example 3, (2S)-N-[5-[[(3R)-1-(6-Fluoropyridazin-3-yl)pyrrolidin-3-yl]amino]-1,3,4-thiadiazol-2-yl]-2-methoxy-2-(3-methoxyphenyl)acetamide] | – | – | 3.62 nM | – | – |
| CO[C@@H](C(=O)Nc1nnc(N[C@@H]2CCN(c3ccc(F)nn3)C2)s1)c1cccc(OC(F)F)c1 [9(b), (2R)-2-[3-(difluoromethoxy)phenyl]-N-[5-[[(3R)-1-(6-fluoropyridazin-3-yl)pyrrolidin-3-yl]amino]-1,3,4-thiadiazol-2-yl]-2-methoxy-acetamide] | – | – | 469 nM | – | – |
| CO[C@H](C(=O)Nc1nnc(N[C@@H]2CCN(c3ccc(F)nn3)C2)s1)c1cccc(OC(F)F)c1 [Example 9(a), (2S)-2-[3-(difluoromethoxy)phenyl]-N-[5-[[(3R)-1-(6-fluoropyridazin-3-yl)pyrrolidin-3-yl]amino]-1,3,4-thiadiazol-2-yl]-2-methoxy-acetamide] | – | – | 3.09 nM | – | – |
| CO[C@H](C(=O)Nc1nnc(N[C@@H]2CCN(c3ccc(C)nn3)C2)s1)c1ccc(F)cc1 (single isomer, unassigned) [5(b)] | – | – | – | 1020 nM | 975 nM |
| COc1ccc(C(OC)C(=O)Nc2nnc(N[C@@H]3CCN(c4ccc(C)nn4)C3)s2)cc1 (stereo partly drawn) [Example 29, 2-methoxy-2-(4-methoxyphenyl)-N-[5-[[(3R)-1-(6-methylpyridazin-3-yl)pyrrolidin-3-yl]amino]-1,3,4-thiadiazol-2-yl]acetamide] | 1280 nM | – | – | 586 nM | – |
| COc1cc([C@H](OC)C(=O)Nc2nnc(N[C@@H]3CCN(c4ccc(C)nn4)C3)s2)ccc1F (single isomer, unassigned) [6(b)] | – | – | – | 926 nM | – |
